Measured values taken from patent US20080182895A1 (priority 2006, published 2008).

How the values were obtained:
[1] = test system: Clone A cells (genotype 1b HCV replicon); assay: Multiple treatments of Clone A cells, HCV RNA level; format: cell-based, Hepatitis C virus
Excerpt: The amounts of HCV RNA and rRNA in cell aliquots were estimated using a quantitative duplex TAQMAN® RT-PCR. The Y-axis represents HCV copies per μg of total cellular RNA (using rRNA as a marker for quantification). Each data point represents an average value from three replicates.
As a control, Clone A cells were passaged in parallel in the same medium containing 0.5% DMSO without compound. […] An aliquot of the cells from each passage was collected to monitor the HCV RNA levels.

1b, BB7-S368F replicon = assay: Replicon variant 3-day assay; format: cell-based, Hepatitis C virus
Method: (§1) pBB7-replicon variant DNAs were linearized with Sca I, and in vitro transcription was performed using Ambion's […]® T7 High Yield Transcription kit (Austin, Tex.). Purified RNA transcripts were electroporated into Huh-7 cells in quadruplicates using a Biorad GENE PULSER® Electroporation System (Setting: 270V, 950 μF) (Hercules, Calif.). Stably transfected replicon variant cell lines were initially selected with 0.25 mg/ml G418 and stepped up to 1 mg/ml before further testing. One cell plate was stained with Crystal Violet to visualize the number of colonies and determine the colony formation efficiency. Individual cell clones from each plate were pooled and expanded for drug susceptibility testing.
(§2) The contribution of individual amino acid changes on drug resistance was assessed in replicon variants containing single amino acid mutations in NS5B in the background of the genotype 1b, BB7 adaptive replicon (Blight et al. (2000) Science 290:1972-74).
(§3) Drug susceptibility of the replicon-containing cells to various compounds was evaluated as described previously (Howe et al. (2004) Antimicrobial Agents Chem. 48:4813-21). Briefly, cells were treated with increasing concentrations of compounds in medium containing 2% FCS and no G418 for three days at 37° C. and 5% CO2. After incubation, total RNA from the replicon-containing cells was isolated. The levels of HCV, glyceraldehyde 3-phosphate dehydrogenase (GAPDH) and ribosomal (rRNA) RNAs were quantified using TAQMAN® (PE Applied Biosystems, Foster City, Calif.) reverse transcriptase PCR reactions. The amounts of HCV, 18S ribosomal, and GAPDH RNAs in each sample were estimated by comparing the number of cycles during the exponential phase of the PCR amplification with those in the corresponding standard curves. HCV RNA standards used for the construction of the standard curve were prepared by extracting the total RNA from the Clone A cells. The RNA sample was sent to National Genetics Institute to quantify HCV RNA. Total RNA extracted from Clone A cells was quantified by O.D.260 measurement and used for construction of the standard curves of rRNA and GAPDH. The concentrations of the compounds that inhibit 50% of the HCV RNA level (EC50) were determined using the MDL® LIFE SCIENCE WORKBENCH® (LSW) Data Analysis software (MDL Information Systems, San Leandro, Calif.) in Microsoft EXCEL®. The amounts of HCV or GAPDH RNAs in the samples were expressed as HCV RNA (copies) or GAPDH (ng), respectively, per μg of total RNA using rRNA as a marker for total RNA measurement.

1b, BB7-I363V replicon = assay: Replicon variant 3-day assay; format: cell-based, Hepatitis C virus
Method: as §1, §2, §3

1b, BB7-M414T replicon = assay: Replicon variant 3-day assay; format: cell-based, Hepatitis C virus
Method: as §1, §2, §3

1b, BB7-C316Y replicon = assay: Replicon variant 3-day assay; format: cell-based, Hepatitis C virus; conditions: 1b
Method: as §1, §2, §3

1b, BB7-C316S replicon = assay: Replicon variant 3-day assay; format: cell-based, Hepatitis C virus
Method: as §1, §2, §3

1b, BB7-L314F replicon = assay: Replicon variant 3-day assay; format: cell-based, Hepatitis C virus
Method: as §1, §2, §3

1b, BB7-C316F replicon = assay: Replicon variant 3-day assay; format: cell-based, Hepatitis C virus
Method: as §1, §2, §3

[2] = test system: 1b, BB7 replicon variants with single NS5B mutations; assay: Replicon variant assay, several variants taken together; format: cell-based, Hepatitis C virus
Method: as §1, §2, §3

[3] = test system: GAPDH mRNA in Clone A cells; format: cell-based, human; conditions: 0.1 and 1 μM HCV-796, throughout the 16-day period
1b, BB7-C316N replicon = assay: Replicon variant assay (separate laboratory); format: cell-based; conditions: Hepatitis C virus, read-out: HCV RNA EC50 (nM) ± SD
Method: as §1, with “Individual cell clones from each plate were pooled and expanded for drug susceptibility testing.” left out
as §2
Drug susceptibility of the replicon-containing cells to various compounds was evaluated as described previously (Howe et al. (2004) Antimicrobial Agents Chem. 48:4813-21). […] The levels of HCV, glyceraldehyde 3-phosphate dehydrogenase (GAPDH) and ribosomal (rRNA) RNAs were quantified using TAQMAN® (PE Applied Biosystems, Foster City, Calif.) reverse transcriptase PCR reactions. […] The RNA sample was sent to National Genetics Institute to quantify HCV RNA. […]

[4] = molecular target: T1, HCV NS5B enzyme BB7-I363V (Hepatitis C virus genotype 1b, UniProt Q9WMX2, I2782V); assay: NS5B polymerase biochemical assay
T1 construct: To prepare expression plasmid NS5B-BB7dCT21-His(1363V); His (C); made in house; host or cells: E. coli
T1 sequence (Q9WMX2 2420-2989 I2782V): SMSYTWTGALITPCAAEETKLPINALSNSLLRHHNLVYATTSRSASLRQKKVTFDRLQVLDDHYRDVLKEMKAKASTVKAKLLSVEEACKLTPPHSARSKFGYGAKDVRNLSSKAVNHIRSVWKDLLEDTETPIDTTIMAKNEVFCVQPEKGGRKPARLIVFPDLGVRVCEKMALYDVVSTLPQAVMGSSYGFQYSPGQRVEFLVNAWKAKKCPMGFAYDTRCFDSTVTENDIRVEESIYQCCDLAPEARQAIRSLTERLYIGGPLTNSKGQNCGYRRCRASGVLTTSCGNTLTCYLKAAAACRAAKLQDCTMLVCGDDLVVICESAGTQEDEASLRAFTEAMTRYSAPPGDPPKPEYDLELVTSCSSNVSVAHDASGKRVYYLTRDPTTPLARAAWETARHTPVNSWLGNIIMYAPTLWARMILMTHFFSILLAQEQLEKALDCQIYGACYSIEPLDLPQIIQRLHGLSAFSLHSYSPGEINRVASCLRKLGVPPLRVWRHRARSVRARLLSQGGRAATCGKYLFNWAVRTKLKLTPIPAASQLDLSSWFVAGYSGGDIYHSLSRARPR
Method: All NS5B enzymes were expressed and purified according to the protocol for NS5B-BB7dCT21-His as described (Howe et al. (2004) Antimicrobial Agents Chem. 48:4813-21). Briefly, expression plasmids were transformed into E. coli cells and NS5B expression was initiated by the addition of isopropyl-beta-D-thiogalactopyranoside (IPTG). After 4 to 6 hours of incubation the cells were harvested and lysed. NS5B enzymes were purified by chromatography using a nickel affinity column (Talon, B D Biosciences, Clontech Laboratories, Inc., Mountain View, Calif.)) followed by a cation exchange column (Poros H S, Applied Biosystems, Foster City, Calif.).

With `CNC(=O)c1c(-c2ccc(F)cc2)oc2cc(N(CCO)S(C)(=O)=O)c(C3CC3)cc12` [HCV-796, 5-cyclopropyl-2-(4-fluorophenyl)-6-[(2-hydroxyethyl)(methylsulfonyl)amino]-N-methyl-1-benzofuran-3-carboxamide] the “decrease in the HCV RNA levels” value ([1]; 0.1 μM HCV-796, end of 16-day treatment) was “about 3.6 log10”, the “decrease in the HCV RNA levels” value ([1]; 1 μM HCV-796, end of 16-day treatment) was roughly 4.2 log10 and the “reduction of HCV RNA levels” value ([1]; hepatoma cells containing a subgenomic genotype 1b HCV replicon) was 3-4 log10 HCV copies/μg total RNA. For the same compound, the “Fold Resistance” value (1b, BB7-S368F replicon; BB7-S368F vs 1b, BB7) was 2 fold, the “Viral Load Reduction” value (1b, BB7-S368F replicon; BB7-S368F, 2240 nM HCV-796, 3-day assay) was 1.4 ± 0.3 log and the EC50 (1b, BB7-S368F replicon; Hepatitis C virus, 72 h, BB7-S368F, 3-day assay, read-out: HCV RNA EC50 (nM) ± SD) was 5 ± 2 nM. The “Fold Resistance” value (1b, BB7-I363V replicon; BB7-I363V vs 1b, BB7) was 5 fold, the “Viral Load Reduction” value (1b, BB7-I363V replicon; BB7-I363V, 2240 nM HCV-796, 3-day assay) was 1.4 ± 0.1 log and the EC50 (1b, BB7-I363V replicon; Hepatitis C virus, 72 h, BB7-I363V, 3-day assay, read-out: HCV RNA EC50 (nM) ± SD) was 16 ± 5 nM. The “Fold Resistance” value (1b, BB7-M414T replicon; 1b, BB7-M414T vs 1b, BB7) was 1 fold, the “Viral Load Reduction” value (1b, BB7-M414T replicon; 1b, BB7-M414T, 2240 nM HCV-796, 3-day assay) was 2.0 ± 0.2 log and the “change of susceptibility to HCV-796 (in words)” value (1b, BB7-M414T replicon; M414T replicon vs wild type) was “did not change the susceptibility”. The “Fold Resistance” value (1b, BB7-C316Y replicon; BB7-C316Y vs 1b, BB7) was 166 fold, the “Viral Load Reduction” value (1b, BB7-C316Y replicon; BB7-C316Y, 2240 nM HCV-796, 3-day assay) was 0.9 ± 0.2 log and the EC50 (1b, BB7-C316Y replicon; Hepatitis C virus, 72 h, BB7-C316Y, 3-day assay, read-out: HCV RNA EC50 (nM) ± SD) was 501 nM. The “Fold Resistance” value (1b, BB7-C316S replicon; BB7-C316S vs 1b, BB7) was 10 fold, the “Viral Load Reduction” value (1b, BB7-C316S replicon; BB7-C316S, 2240 nM HCV-796, 3-day assay) was 1.3 ± 0.1 log and the EC50 (1b, BB7-C316S replicon; Hepatitis C virus, 72 h, BB7-C316S, 3-day assay, read-out: HCV RNA EC50 (nM) ± SD) was 30 nM. The “Fold Resistance” value (1b, BB7-L314F replicon; 1b, BB7-L314F vs 1b, BB7) was 1 fold, the “Viral Load Reduction” value (1b, BB7-L314F replicon; 1b, BB7-L314F, 2240 nM HCV-796, 3-day assay) was 1.6 ± 0.3 log and the EC50 (1b, BB7-L314F replicon; Hepatitis C virus, 72 h, 1b, BB7-L314F, 3-day assay, read-out: HCV RNA EC50 (nM) ± SD) was 4 ± 2 nM. The “change of susceptibility to HCV-796 (in words)” value (1b, BB7-L314F replicon; L314F replicon vs wild type) was “did not change the susceptibility”, the “Fold Resistance” value (1b, BB7-C316F replicon; BB7-C316F vs 1b, BB7) was 130 fold and the “Viral Load Reduction” value (1b, BB7-C316F replicon; BB7-C316F, 2240 nM HCV-796, 3-day assay) was 0.8 ± 0.5 log. The EC50 (1b, BB7-C316F replicon; Hepatitis C virus, 72 h, BB7-C316F, 3-day assay, read-out: HCV RNA EC50 (nM) ± SD) was 392 nM, the “effect on the susceptibility to HCV-796 (in words)” value ([2]; I363V and S368F replicon variants) was “modest effect” and the Fold Reduced Susceptibility ([2]; M414I/V replicon variants, range) was 3-8 fold. The “level of housekeeping gene GAPDH mRNA” value [3] was “remained essentially unchanged”, the EC50 (1b, BB7-C316N replicon) was 220 ± 110 nM and the IC50 ([4]; BB7-I363V enzyme) was 60 ± 10 nM. For the same compound, the “Susceptibility Relative to Wild type Enzyme” value ([4]; BB7-I363V vs BB7 (C316)) was 1.5-fold less.
